Measurements as given in PMC4967831, “Structural dissection of a complex Bacteroides ovatus gene locus conferring xyloglucan metabolism in the human gut” (Open Biology, 2016).

What was measured:
Type in all cases: binding
BoGH31 = target: T1, BoGH31 (Bacteroides ovatus, UniProt A7LXT0); assay: crystal structure of covalent glycosyl-enzyme intermediate (soak)
T1 construct: gene BACOVA_02646; pET-YSBL3C construct with N-terminal His6-tag and 3C-cleavage site

BoGH43B = target: T2, BoGH43B (Bacteroides ovatus, UniProt A7LXU0); assay: ITC
T2 construct: gene BACOVA_02656; expressed from pET21a(BoGH43B)
T2 sequence (A7LXU0 24-529): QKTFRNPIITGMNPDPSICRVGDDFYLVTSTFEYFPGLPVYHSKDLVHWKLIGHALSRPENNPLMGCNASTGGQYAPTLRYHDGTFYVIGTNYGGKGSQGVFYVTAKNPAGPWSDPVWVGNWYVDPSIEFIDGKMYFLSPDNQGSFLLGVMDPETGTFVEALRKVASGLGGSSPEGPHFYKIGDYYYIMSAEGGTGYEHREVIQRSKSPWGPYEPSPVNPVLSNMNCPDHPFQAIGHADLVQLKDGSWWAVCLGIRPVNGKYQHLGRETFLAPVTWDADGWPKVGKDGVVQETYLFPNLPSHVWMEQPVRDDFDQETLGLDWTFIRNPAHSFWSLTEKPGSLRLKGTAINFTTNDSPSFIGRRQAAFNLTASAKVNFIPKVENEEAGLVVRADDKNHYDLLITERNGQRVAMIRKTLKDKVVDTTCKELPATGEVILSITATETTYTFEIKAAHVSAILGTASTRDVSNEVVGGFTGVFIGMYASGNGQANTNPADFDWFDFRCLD

BoGH43A [1] = target: T3, BoGH43A (Bacteroides ovatus, UniProt A7LXT8); assay: ITC and crystal structure of the complex
T3 construct: gene BACOVA_02654; pET28a construct with N-terminal His6-tag
T3 sequence (A7LXT8 21-526): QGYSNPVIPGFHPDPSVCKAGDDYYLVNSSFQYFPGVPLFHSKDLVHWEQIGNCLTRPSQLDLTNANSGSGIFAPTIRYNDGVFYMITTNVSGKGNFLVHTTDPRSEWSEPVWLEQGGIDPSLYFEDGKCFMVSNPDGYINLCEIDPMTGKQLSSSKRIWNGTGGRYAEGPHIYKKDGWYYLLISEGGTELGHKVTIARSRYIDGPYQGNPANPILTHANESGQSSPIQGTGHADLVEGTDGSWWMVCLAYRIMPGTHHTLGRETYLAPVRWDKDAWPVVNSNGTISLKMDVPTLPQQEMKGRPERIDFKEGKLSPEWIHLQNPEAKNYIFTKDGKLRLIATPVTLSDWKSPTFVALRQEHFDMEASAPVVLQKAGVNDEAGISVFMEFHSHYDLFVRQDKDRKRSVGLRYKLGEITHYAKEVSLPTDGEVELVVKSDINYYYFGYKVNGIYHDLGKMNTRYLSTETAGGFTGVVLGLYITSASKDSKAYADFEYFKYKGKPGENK

BoGH43A [2] = target: T3, BoGH43A; assay: crystal structure of the complex (soak); too weak to be measured by ITC
BoGH3B = target: T4, BoGH3B (Bacteroides ovatus, UniProt A7LXU3); assay: crystal structure; glucose co-purified in the active site
T4 construct: gene BACOVA_02659; expressed from pET21a(GH3B)
T4 sequence (A7LXU3 23-786): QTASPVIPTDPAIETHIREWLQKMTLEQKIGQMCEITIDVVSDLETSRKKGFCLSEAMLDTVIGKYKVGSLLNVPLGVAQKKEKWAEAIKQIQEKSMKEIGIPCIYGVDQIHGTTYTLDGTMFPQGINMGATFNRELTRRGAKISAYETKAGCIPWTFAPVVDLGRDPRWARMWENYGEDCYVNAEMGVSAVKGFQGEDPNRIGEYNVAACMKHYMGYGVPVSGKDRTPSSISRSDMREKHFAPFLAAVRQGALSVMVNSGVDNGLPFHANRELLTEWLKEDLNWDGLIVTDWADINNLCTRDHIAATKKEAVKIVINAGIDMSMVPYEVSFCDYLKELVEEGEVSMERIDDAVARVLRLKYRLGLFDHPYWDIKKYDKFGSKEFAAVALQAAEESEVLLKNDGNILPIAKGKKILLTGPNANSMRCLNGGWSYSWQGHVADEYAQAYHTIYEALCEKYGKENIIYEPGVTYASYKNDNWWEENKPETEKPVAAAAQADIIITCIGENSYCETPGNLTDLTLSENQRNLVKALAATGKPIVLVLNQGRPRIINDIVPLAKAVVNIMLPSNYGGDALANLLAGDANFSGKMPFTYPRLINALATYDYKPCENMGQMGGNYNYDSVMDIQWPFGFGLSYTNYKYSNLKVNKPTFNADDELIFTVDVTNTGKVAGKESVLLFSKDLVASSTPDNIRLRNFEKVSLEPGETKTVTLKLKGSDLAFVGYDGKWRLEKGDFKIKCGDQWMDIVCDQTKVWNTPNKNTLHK

T1 sequence (A7LXT0 22-954): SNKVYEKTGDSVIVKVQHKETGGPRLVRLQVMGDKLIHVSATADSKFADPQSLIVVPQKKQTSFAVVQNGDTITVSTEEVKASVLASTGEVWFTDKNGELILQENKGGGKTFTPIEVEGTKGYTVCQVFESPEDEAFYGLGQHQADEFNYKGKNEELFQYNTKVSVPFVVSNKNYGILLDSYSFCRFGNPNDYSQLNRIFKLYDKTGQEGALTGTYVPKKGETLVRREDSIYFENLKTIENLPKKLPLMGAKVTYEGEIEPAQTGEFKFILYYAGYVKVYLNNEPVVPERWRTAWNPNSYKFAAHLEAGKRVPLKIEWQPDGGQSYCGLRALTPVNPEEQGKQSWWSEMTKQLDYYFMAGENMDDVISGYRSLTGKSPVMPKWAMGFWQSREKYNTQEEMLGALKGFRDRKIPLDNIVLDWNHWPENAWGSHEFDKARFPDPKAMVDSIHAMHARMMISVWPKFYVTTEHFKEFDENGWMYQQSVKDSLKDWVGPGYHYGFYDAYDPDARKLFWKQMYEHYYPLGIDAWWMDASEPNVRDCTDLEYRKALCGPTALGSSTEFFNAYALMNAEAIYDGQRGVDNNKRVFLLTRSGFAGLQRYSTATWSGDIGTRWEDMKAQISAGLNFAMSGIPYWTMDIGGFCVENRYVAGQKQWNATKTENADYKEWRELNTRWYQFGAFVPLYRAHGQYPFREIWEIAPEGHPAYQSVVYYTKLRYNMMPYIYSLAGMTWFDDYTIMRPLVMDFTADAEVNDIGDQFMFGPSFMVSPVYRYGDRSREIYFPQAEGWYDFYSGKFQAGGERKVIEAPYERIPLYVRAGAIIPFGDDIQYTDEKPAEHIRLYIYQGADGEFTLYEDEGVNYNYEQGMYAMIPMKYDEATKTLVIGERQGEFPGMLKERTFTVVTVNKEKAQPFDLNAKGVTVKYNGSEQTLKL

In the case of `OC[C@]1(F)O[C@H](F)[C@H](O)[C@@H](O)[C@@H]1O` [5FIdoF, 5-fluoro-β-L-idosyl fluoride], the “crystal structure of covalent glycosyl-enzyme intermediate (soak)” value (BoGH31) is reported as 5FIdoF forms an α-glycosidic linkage to the side-chain carboxylate of Asp553.

With `OC[C@@H]1NC[C@H](O)[C@H]1O` [AraDNJ] the Kd (BoGH43B) was 111 ± 6 µM and the Kd (BoGH43A [1]) was 35 ± 4 µM.

For `OC[C@@H]1O/C(=N\O)[C@H](O)[C@H]1O` [AraLOG, (Z)-L-Arabinonhydroximo-1,4-lactone], the “crystal structure of the complex (soak); too weak to be measured by ITC” value (BoGH43A [2]) was “the inhibitor stacking against Tyr187 while also H-bonding directly to the side chains of Glu210 and Glu189”.

`OC[C@H]1O[C@@H](O)[C@H](O)[C@@H](O)[C@@H]1O` [glucose] was tested, and the “crystal structure; glucose co-purified in the active site” value (BoGH3B) was “BoGH3B was found to co-purify with glucose in its active site (figure 5b)”.
